Source: patent US12662707B2, “MYC amplification drives resistance to pan-RAS inhibitors in pancreatic cancer” (The Trustees of Columbia University in the City of New York, priority 2024, dated 2026)

Key:
[1] = tested on: murine Dusp6 mRNA in normal colon and skin; experiment: PK/PD in normal colon and skin of CDX tumor-bearing mice (Dusp6 qRT-PCR); format: in vivo, mouse
Experimental: Tumor-bearing animals were randomized and assigned into groups (n=3-10/group). Vehicle or RMC-7977 was administered via oral gavage daily at 10 mg/kg and animals were treated for 21-28 days. Studies were terminated early if tumor burden reached humane endpoint. Body weights were collected twice a week during the study. Means±s.e.m were plotted in the waterfall plots. For the single-dose pharmacokinetic/pharmacodynamic (PK/PD) study, mice were randomized and assigned into groups (n=3-6/dose/timepoint). A single dose of RMC-7977 was administered orally at 10 mg/kg, 25 mg/kg and 50 mg/kg. […]
Whole blood, tumor, colon and skin tissue concentrations of RMC-7977 were determined using liquid chromatography-tandem mass spectrometry (LC-MS/MS) methods. […] After thorough mixing and centrifugation, the supernatant was directly analyzed on a Sciex 6500+ triple quadrupole mass spectrometer equipped with an ACQUITY or Shimadzu UPLC system. […] RMC-7977 and IS (verapamil or terfenadine) were detected by positive electrospray ionization using multiple reaction monitoring (RMC-7977: m/z 865.4/706.4 or m/z 865.3/833.5; verapamil: m/z 455.2/164.9; terfenadine: m/z 472.3/436.4). The lower limit of quantification was 0.5 ng/mL or 2.0 ng/mL for blood, tumor, and other tissue. […]

[2] = tested on: normal tissues (colon, skin, liver, intestines, lungs, kidneys); experiment: IHC and histopathology of normal tissues of KPC mice; format: in vivo, mouse
Experimental: Tumor formation in KPC mice was monitored by bi-weekly palpation. […] Treatments were performed every other day via oral gavage for 1 week. […] Following two consecutive ultrasounds, RMC-7977-treated animals were sacrificed either 4 (n=7) or 24 hours (n=4) after last dose and Vehicle-treated animals were sacrificed between 4-24 hours post last dose. Tissue was harvested and preserved as previously described (See Xenograft studies section). Additional group of KPC mice was also treated with a single dose of RMC-7977 (n=10) or Vehicle (n=3) and tissues were harvested at 4 or 24 hours post dose as previously described. All tissues were fixed for up to 24 hours using 10% neutral buffered formalin and then moved to 70% ethanol for long term storage. All stainings were performed on 4-μm tissue sections. Sections were deparaffinized using a Leica XL ST5010 autostainer, after which slides were subjected to heat-activated epitope retrieval. […] Slides were further blocked in serum for 1 hour, and primary antibodies were added for overnight incubation at 4° C. […] Following incubation, ImmPACT DAB peroxidase (Vector Laboratories, SK-4100) was used to develop the stain and hematoxylin was used as nuclear counterstain. Stained slides were imaged at 40× magnification. Quantitative analyses of IHC images were performed using ImageJ.

## CCn1c(-c2cc(N3CCN(C4CC4)CC3)cnc2[C@H](C)OC)c2c3cc(ccc31)-c1csc(n1)C[C@H](NC(=O)[C@H]1[C@@H]3COC[C@@H]31)C(=O)N1CCC[C@H](N1)C(=O)OCC(C)(C)C2 [RMC-7977]
[1]; normal colon
  fold lower EC50 in Capan-1 tumors compared to colon: ~22 fold
[1]; normal skin
  fold lower EC50 in Capan-1 tumors compared to skin: ~8 fold
[2]; SD, 1 Wk and EP KPC mice, all timepoints
  effects on apoptosis (CC3) and proliferation (Cyclin A2) in colon and skin: absent or negligible
[2]; proximal intestines of half the treated animals, no diarrhea or weight loss
  treatment-associated histopathological feature: modest increase in apoptosis
